Measured values from US20240270762A1, “PENICILLIN-BINDING PROTEIN INHIBITORS” (priority 2021, published 2024).
In brackets after ≈: the same amount, converted by molar mass.

Assays:
N. gonorrhoeae MS11 = test: Liquid broth MIC in Fastidious broth; conditions: Neisseria gonorrhoeae, MS11, read-out: Minimum Inhibitory Concentration, MS11
P. aeruginosa ATCC 27853 = test: microbe, parasite or virus in culture; format: cell-based; conditions: Pseudomonas aeruginosa, ATCC27853, read-out: Minimum inhibitory concentration, P. aeruginosa ATCC 27853
A. baumannii CDC-0036 = test: microbe, parasite or virus in culture; format: cell-based; conditions: Acinetobacter baumannii, CDC0036, read-out: MIC, A. baumannii CDC-0036
[1] = target: T1, PBP3 from Escherichia coli (K-12) (Escherichia coli, UniProt P0AD68); test: Bocillin-FL fluorescence polarization competition binding, E. coli PBP3
T1 construct: made in house
T1 sequence (P0AD68 1-577): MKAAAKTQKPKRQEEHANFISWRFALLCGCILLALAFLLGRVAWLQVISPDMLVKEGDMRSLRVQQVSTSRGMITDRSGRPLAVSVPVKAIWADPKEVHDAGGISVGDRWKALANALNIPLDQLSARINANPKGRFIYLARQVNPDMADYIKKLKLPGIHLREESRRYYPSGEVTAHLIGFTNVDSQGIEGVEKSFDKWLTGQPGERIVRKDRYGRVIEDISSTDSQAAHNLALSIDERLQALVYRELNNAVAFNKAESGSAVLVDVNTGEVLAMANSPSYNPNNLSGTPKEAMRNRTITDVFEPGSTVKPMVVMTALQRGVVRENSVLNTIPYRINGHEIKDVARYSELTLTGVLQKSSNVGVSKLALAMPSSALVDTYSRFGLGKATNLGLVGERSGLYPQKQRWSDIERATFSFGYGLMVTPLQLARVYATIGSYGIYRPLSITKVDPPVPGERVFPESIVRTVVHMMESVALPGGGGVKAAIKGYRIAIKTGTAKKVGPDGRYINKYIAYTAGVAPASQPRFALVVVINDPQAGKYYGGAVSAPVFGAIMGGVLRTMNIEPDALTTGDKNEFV
Outline: (§1)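 Purified PBPs pre-incubated with inhibitor (E. coli PBP3 1.5 μM, 30 min; P. aeruginosa PBP3 0.75 μM, A. baumannii PBP1a 1 μM and PBP3 0.2 μM, 15 min), then Bocillin-FL 0.1 μM (0.05 μM for PBP1a) added; FP read up to 60 min. EC50 = concentration halving bound Bocillin-FL.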

N. gonorrhoeae CDC-0197 = test: Liquid broth MIC in Fastidious broth; conditions: Neisseria gonorrhoeae, CDC0197, read-out: Minimum Inhibitory Concentration, CDC-0197
N. gonorrhoeae WHO G = test: Liquid broth MIC in Fastidious broth; conditions: Neisseria gonorrhoeae, read-out: Minimum Inhibitory Concentration, WHO G
[2] = target: T2, PBP3 from Pseudomonas aeruginosa (PAO1) (Pseudomonas aeruginosa, UniProt G3XD46); test: Bocillin-FL fluorescence polarization competition binding, P. aeruginosa PBP3; conditions: Binding affinity to P. aeruginosa PBP3; fluorescence polarization competition binding assay using Bocillin-FL; read-out: P. aeruginosa PBP3 Potency
T2 construct: made in house
T2 sequence (G3XD46 whole entry): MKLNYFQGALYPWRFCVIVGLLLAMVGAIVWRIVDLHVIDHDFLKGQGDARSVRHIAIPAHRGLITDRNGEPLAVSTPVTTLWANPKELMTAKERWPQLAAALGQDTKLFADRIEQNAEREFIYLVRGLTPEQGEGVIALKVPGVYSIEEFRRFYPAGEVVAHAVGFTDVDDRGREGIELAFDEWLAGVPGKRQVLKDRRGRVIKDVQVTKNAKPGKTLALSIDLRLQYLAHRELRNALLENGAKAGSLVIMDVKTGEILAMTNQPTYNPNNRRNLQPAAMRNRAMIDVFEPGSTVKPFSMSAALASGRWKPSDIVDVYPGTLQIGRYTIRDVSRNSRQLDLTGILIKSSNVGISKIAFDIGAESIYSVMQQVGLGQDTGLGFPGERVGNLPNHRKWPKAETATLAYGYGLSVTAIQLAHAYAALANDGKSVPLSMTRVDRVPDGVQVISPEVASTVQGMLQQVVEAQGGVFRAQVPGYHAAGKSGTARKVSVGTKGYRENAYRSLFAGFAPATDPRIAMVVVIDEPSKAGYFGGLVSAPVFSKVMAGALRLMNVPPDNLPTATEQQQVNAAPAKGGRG
Outline: as §1

N. gonorrhoeae WHO M = test: Liquid broth MIC in Fastidious broth; conditions: Neisseria gonorrhoeae, read-out: Minimum Inhibitory Concentration, WHO M
[3] = target: T3, PBP3 from Acinetobacter baumannii (ATCC 19606) (Acinetobacter baumannii, UniProt A0ABX6CK25); test: Bocillin-FL fluorescence polarization competition binding, A. baumannii PBP3; conditions: fluorescence polarization competition binding assay using Bocillin-FL; read-out: A. baumannii PBP3 Potency
T3 sequence (A0ABX6CK25 64-610): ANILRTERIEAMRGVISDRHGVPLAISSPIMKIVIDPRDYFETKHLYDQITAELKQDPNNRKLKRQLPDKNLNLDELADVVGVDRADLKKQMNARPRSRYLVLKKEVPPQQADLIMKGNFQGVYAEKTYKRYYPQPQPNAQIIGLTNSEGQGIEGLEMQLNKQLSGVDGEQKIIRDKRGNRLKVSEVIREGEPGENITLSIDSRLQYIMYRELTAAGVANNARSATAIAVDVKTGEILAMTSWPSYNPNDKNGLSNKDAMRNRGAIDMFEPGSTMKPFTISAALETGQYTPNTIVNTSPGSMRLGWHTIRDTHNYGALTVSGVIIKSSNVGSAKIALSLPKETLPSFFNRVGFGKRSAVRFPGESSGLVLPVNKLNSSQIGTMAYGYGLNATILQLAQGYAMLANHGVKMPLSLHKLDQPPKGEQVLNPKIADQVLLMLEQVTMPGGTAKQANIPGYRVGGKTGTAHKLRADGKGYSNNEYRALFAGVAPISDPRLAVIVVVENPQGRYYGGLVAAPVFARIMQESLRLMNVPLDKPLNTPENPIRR
Outline: as §1

| SMILES | MIC (N. gonorrhoeae MS11) [µg/mL] | MIC (P. aeruginosa ATCC 27853) [µg/mL] | MIC (A. baumannii CDC-0036) [µg/mL] | EC50 [1] [µM] | MIC (N. gonorrhoeae CDC-0197) [µg/mL] | MIC (N. gonorrhoeae WHO G) [µg/mL] | IC50 [2] [µM] | MIC (N. gonorrhoeae WHO M) [µg/mL] | IC50 [3] [µM] |
| --- | --- | --- | --- | --- | --- | --- | --- | --- | --- |
| O=C(NCCCS(=O)(=O)N1CCN(C(=O)NC(C(=O)N[C@H]2Cc3ccc(F)c(C(=O)O)c3OB2O)c2cc(F)c(O)c(O)c2Cl)C1=O)Nc1cccnc1 (stereo partly drawn) [Example 278, (3R)-3-(2-(2-chloro-5-fluoro-3,4-dihydroxyphenyl)-2-(2-oxo-3-((3-(3-(pyridin-3-yl)ureido)propyl)sulfonyl)imidazolidine-1-carboxamido)acetamido)-7-fluoro-2-hydroxy-3,4-dihydro-2H-benzo[e][1,2]oxaborinine-8-carboxylic acid] | 16 to 32 (≈ 20.1 to 40.2 µM) | 2 to 4 (≈ 2.51 to 5.03 µM) | 2 to 4 (≈ 2.51 to 5.03 µM) | < 10 | 16 to 32 (≈ 20.1 to 40.2 µM) | 16 to 32 (≈ 20.1 to 40.2 µM) | < 10 | 16 to 32 (≈ 20.1 to 40.2 µM) | < 10 |
| Cc1cc(C(=O)NCCCN2CCN(C(=O)N[C@@H](C(=O)N[C@H]3Cc4ccc(F)c(C(=O)O)c4OB3O)c3cc(F)c(O)c(O)c3Cl)C(=O)C2=O)ccn1 [Example 298, (R)-3-((R)-2-(2-chloro-5-fluoro-3,4-dihydroxyphenyl)-2-(4-(3-(2-methylisonicotinamido)propyl)-2,3-dioxopiperazine-1-carboxamido)acetamido)-7-fluoro-2-hydroxy-3,4-dihydro-2H-benzo[e][1,2]oxaborinine-8-carboxylic acid] | 16 to 32 (≈ 21.1 to 42.2 µM) | 2 to 4 (≈ 2.64 to 5.27 µM) | < 1 | < 10 | > 64 | 16 to 32 (≈ 21.1 to 42.2 µM) | < 10 | 16 to 32 (≈ 21.1 to 42.2 µM) | < 10 |
| O=C(NCCS(=O)(=O)N1CCN(C(=O)N[C@@H](C(=O)N[C@H]2Cc3ccc(F)c(C(=O)O)c3OB2O)c2cc(F)c(O)c(O)c2Cl)C1=O)Nc1ccncc1 [Example 290, (R)-3-((R)-2-(2-chloro-5-fluoro-3,4-dihydroxyphenyl)-2-(2-oxo-3-((2-(3-(pyridin-4-yl)ureido)ethyl)sulfonyl)imidazolidine-1-carboxamido)acetamido)-7-fluoro-2-hydroxy-3,4-dihydro-2H-benzo[e][1,2]oxaborinine-8-carboxylic acid] | 16 to 32 (≈ 20.5 to 40.9 µM) | 2 to 4 (≈ 2.56 to 5.12 µM) | 2 to 4 (≈ 2.56 to 5.12 µM) | < 10 | 16 to 32 (≈ 20.5 to 40.9 µM) | 16 to 32 (≈ 20.5 to 40.9 µM) | < 10 | 16 to 32 (≈ 20.5 to 40.9 µM) | < 10 |
| Cc1cnccc1C(=O)NCCCN1CCN(C(=O)NC(C(=O)N[C@H]2Cc3ccc(F)c(C(=O)O)c3OB2O)c2cc(F)c(O)c(O)c2Cl)C(=O)C1=O (stereo partly drawn) [Example 297, (3R)-3-(2-(2-chloro-5-fluoro-3,4-dihydroxyphenyl)-2-(4-(3-(3-methylisonicotinamido)propyl)-2,3-dioxopiperazine-1-carboxamido)acetamido)-7-fluoro-2-hydroxy-3,4-dihydro-2H-benzo[e][1,2]oxaborinine-8-carboxylic acid] | 16 to 32 (≈ 21.1 to 42.2 µM) | < 1 | 2 to 4 (≈ 2.64 to 5.27 µM) | < 10 | > 64 | 16 to 32 (≈ 21.1 to 42.2 µM) | < 10 | 16 to 32 (≈ 21.1 to 42.2 µM) | < 10 |
| O=C(NCCCN1CCN(C(=O)N[C@@H](C(=O)N[C@H]2Cc3ccc(F)c(C(=O)O)c3OB2O)c2cc(F)c(O)c(O)c2Cl)C1=O)Nc1ccc(O)cc1 [Example 284, (R)-3-((R)-2-(2-chloro-5-fluoro-3,4-dihydroxyphenyl)-2-(3-(3-(3-(4-hydroxyphenyl)ureido)propyl)-2-oxoimidazolidine-1-carboxamido)acetamido)-7-fluoro-2-hydroxy-3,4-dihydro-2H-benzo[e][1,2]oxaborinine-8-carboxylic acid] | 4 to 8 (≈ 5.36 to 10.7 µM) | 2 to 4 (≈ 2.68 to 5.36 µM) | < 1 | 10 to 50 | 16 to 32 (≈ 21.4 to 42.8 µM) | 4 to 8 (≈ 5.36 to 10.7 µM) | < 10 | 4 to 8 (≈ 5.36 to 10.7 µM) | < 10 |
| O=C(NCCCN1CCN(C(=O)NC(C(=O)N[C@H]2Cc3ccc(F)c(C(=O)O)c3OB2O)c2cc(F)c(O)c(O)c2Cl)C1=O)Nc1ccncc1 (stereo partly drawn) [Example 285, (3R)-3-(2-(2-chloro-5-fluoro-3,4-dihydroxyphenyl)-2-(2-oxo-3-(3-(3-(pyridin-4-yl)ureido)propyl)imidazolidine-1-carboxamido)acetamido)-7-fluoro-2-hydroxy-3,4-dihydro-2H-benzo[e][1,2]oxaborinine-8-carboxylic acid] | > 64 | 8 to 16 (≈ 10.9 to 21.9 µM) | 8 to 16 (≈ 10.9 to 21.9 µM) | 10 to 50 | > 64 | > 64 | < 10 | > 64 | < 10 |
